# Where “and” joins values, the source holds several entries; their conditions need not be identical. Equal entries are not always repeated.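 Compound exposure: 48 hours, 5 concentrations, 96-well plates. GI50: concentration for 50% inhibition of growth. TGI is the concentration that stops growth completely.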
# System: RXF 393 renal
# Assay: inhibition of tumour cell growth, NCI panel, 48 h
Compound,GI50,TGI
C#CC1(O)C(COP(=O)(O)OC(COCCCCCCCCCCCCCCCCCC)COP(=O)(O)OCC2OC(n3cc(F)c(=O)[nH]c3=O)CC2O)OC(n2ccc(N)nc2=O)C1O (configuration not stated),0.306 µM and 2.46 µM,17.3 µM and 22.5 µM
COc1cc2oc3cc(=O)cc4oc(-c5ccccc5)cc(c2c2c1CCC(c1ccccc1)O2)c43 (configuration not stated),–,> 100 µM
c1cc2n(n1)CCN2,–,9590 µM
COc1cc(Nc2c(C#N)cnc3cc(OCCCN4CCN(C)CC4)c(OC)cc23)c(Cl)cc1Cl,0.85 µM,6.02 µM
O=CN/C=C/c1cccc(O)c1,–,85.1 µM
Nc1ccc2c(SCc3ccc([N+](=O)[O-])cc3)c3ccccc3nc2c1,–,42.3 µM
COC1=CC(c2ccc[nH]2)=N/C1=C\c1[nH]c(C)c(C(=O)CCCCC(=O)NC(C)(C)C)c1C,1.66 µM,3.6 µM
O=c1ccn(C2CC(O)C(CO)O2)c(=O)[nH]1 (configuration not stated),> 5000 µM,> 5000 µM
O=C(N/C(=C/c1ccc(Cl)cc1Cl)c1nc2ccccc2s1)c1ccccc1,–,54.9 µM
CCOC(=O)c1cc2c(n1Cc1cccc(OC)c1)-c1oncc1CCC2,1.07 µM,6.89 µM
COc1c(O)cc2oc(-c3ccc(O)cc3)cc(=O)c2c1O,–,> 100 µM
COc1cccc(-c2nn(-c3ccccc3)cc2-c2ccnc(NCCCNC(=O)Nc3ccc(Cl)c(Cl)c3)c2)c1,1.81 µM,4.87 µM
c1csc(-c2cn3nc(-c4c[nH]c5ccccc45)sc3n2)c1,2.05 µM,50 µM
COc1cc2ccccc2oc1=O,–,48.5 µM
N#CCCN(CCCN(CCCN(C(=O)Nc1ccccc1)c1ccccc1)C(=O)Nc1ccccc1)C(=O)Nc1ccccc1,> 100 µM,> 100 µM
COc1ccc(-c2nc(-c3ccccc3)c(-c3ccccc3)[nH]2)cc1OC1CCCC1,8.3 µM,99.5 µM

# System: OVCAR-8 ovarian
# Assay: inhibition of tumour cell growth, NCI panel, 48 h
Compound,GI50,TGI
C[C@]12CCc3sc(NCCc4ccccc4)nc3C1=CC[C@@H]1[C@@H]2CC[C@]2(C)C(=O)CC[C@@H]12,2.77 µM,> 100 µM
COc1cccc(C2=C(c3c(C)n(C)c4ccccc34)C(=O)NC2=O)c1,> 25 µM,> 25 µM
CCN(Cc1ccc(F)cc1)c1ccc(CO)c(F)c1,16.2 µM,> 84.5 µM
O=C(Cn1c(=O)c(-c2ccccc2)nc2ccccc21)Nc1ccc(F)cc1,39.6 µM,> 100 µM
CN(C)CCNC(=O)c1cc([N+](=O)[O-])cc2c1Oc1ccccc1O2,–,> 100 µM
COc1cccc2c1C(=O)c1c(O)c3c(c(O)c1C2=O)CC(O)(C(O)CO)CC3OC1CC(N2CCOCC2)C(O)C(C)O1 (configuration not stated),–,0.0281 µM
O=C1C(N2CC2)=C(N2CC2)C(=O)C(N2CC2)=C1N1CC1,0.344 µM,6.99 µM
O=C(O)C1OC1(c1cccc(Cl)c1)c1ccccc1Cl (configuration not stated),–,> 100 µM
CCCCC[C@H]1C/C=C2/C(=O)C=C[C@@H]2C/C=C\CCCC(=O)O[C@@H](CCCCC)C/C=C2/C(=O)C=C[C@@H]2C/C=C\CCCC(=O)O1,0.112 µM,2.7 µM
O=C(Nc1cccc(-n2cc(-c3ccncc3)c(-c3cc(O)cc(Cl)c3)n2)c1)Nc1ccc(Cl)c(C(F)(F)F)c1,2.15 µM,5.55 µM
COC1/C=C/C(C)C(C(C)C(OC)C(C)CCC(=O)C(C)C(C/C=C/N(C)C=O)OC)OC(=O)/C=C/C=C(\C)CC(OC)CC2=CC(=O)O[C@H](C2)C(C)C(OC)CC(OC)/C=C/C(C)C(OC)C1 (some centres not stated),0.0227 µM,0.0768 µM and 0.196 µM
CNCCCn1c2c(c3ccc([N+](=O)[O-])cc3c1=O)C(=O)c1cc(OC)cnc1-2,0.0861 µM,1.81 µM
C#CC1(O)C(COP(=O)(O)OC(COCCCCCCCCCCCCCCCCCC)COP(=O)(O)OCC2OC(n3cc(F)c(=O)[nH]c3=O)CC2O)OC(n2ccc(N)nc2=O)C1O (configuration not stated),0.0922 µM and 0.28 µM,> 60.9 µM
COc1cc2oc3cc(=O)cc4oc(-c5ccccc5)cc(c2c2c1CCC(c1ccccc1)O2)c43 (configuration not stated),–,> 100 µM
c1cc2n(n1)CCN2,–,> 9400 µM
COc1cc(Nc2c(C#N)cnc3cc(OCCCN4CCN(C)CC4)c(OC)cc23)c(Cl)cc1Cl,2.35 µM,14.4 µM
O=CN/C=C/c1cccc(O)c1,–,> 96.1 µM
Nc1ccc2c(SCc3ccc([N+](=O)[O-])cc3)c3ccccc3nc2c1,–,26.7 µM
COC1=CC(c2ccc[nH]2)=N/C1=C\c1[nH]c(C)c(C(=O)CCCCC(=O)NC(C)(C)C)c1C,2.25 µM,5.45 µM
O=c1ccn(C2CC(O)C(CO)O2)c(=O)[nH]1 (configuration not stated),> 5000 µM,> 5000 µM
O=C(N/C(=C/c1ccc(Cl)cc1Cl)c1nc2ccccc2s1)c1ccccc1,–,47.4 µM
CCOC(=O)c1cc2c(n1Cc1cccc(OC)c1)-c1oncc1CCC2,3.21 µM,> 100 µM
COc1cccc(-c2nn(-c3ccccc3)cc2-c2ccnc(NCCCNC(=O)Nc3ccc(Cl)c(Cl)c3)c2)c1,3.22 µM,13.4 µM
c1csc(-c2cn3nc(-c4c[nH]c5ccccc45)sc3n2)c1,2.72 µM,> 100 µM
COc1cc2ccccc2oc1=O,–,> 100 µM
N#CCCN(CCCN(CCCN(C(=O)Nc1ccccc1)c1ccccc1)C(=O)Nc1ccccc1)C(=O)Nc1ccccc1,85.2 µM,> 100 µM
COc1ccc(-c2nc(-c3ccccc3)c(-c3ccccc3)[nH]2)cc1OC1CCCC1,> 100 µM,> 100 µM

# System: K-562 leukemia
# Assay: inhibition of tumour cell growth, NCI panel, 48 h
Compound,GI50 [µM],TGI
C[C@]12CCc3sc(NCCc4ccccc4)nc3C1=CC[C@@H]1[C@@H]2CC[C@]2(C)C(=O)CC[C@@H]12,2.89,> 100 µM
COc1cccc(C2=C(c3c(C)n(C)c4ccccc34)C(=O)NC2=O)c1,11,> 25 µM
CCN(Cc1ccc(F)cc1)c1ccc(CO)c(F)c1,7.46,> 73.5 µM
O=C(Cn1c(=O)c(-c2ccccc2)nc2ccccc21)Nc1ccc(F)cc1,35.8,> 100 µM
CN(C)CCNC(=O)c1cc([N+](=O)[O-])cc2c1Oc1ccccc1O2,–,> 100 µM
COc1cccc2c1C(=O)c1c(O)c3c(c(O)c1C2=O)CC(O)(C(O)CO)CC3OC1CC(N2CCOCC2)C(O)C(C)O1 (configuration not stated),–,1.61 µM
O=C1C(N2CC2)=C(N2CC2)C(=O)C(N2CC2)=C1N1CC1,0.785,> 100 µM
O=C(O)C1OC1(c1cccc(Cl)c1)c1ccccc1Cl (configuration not stated),–,87.6 µM
CCCCC[C@H]1C/C=C2/C(=O)C=C[C@@H]2C/C=C\CCCC(=O)O[C@@H](CCCCC)C/C=C2/C(=O)C=C[C@@H]2C/C=C\CCCC(=O)O1,0.0891,0.561 µM
O=C(Nc1cccc(-n2cc(-c3ccncc3)c(-c3cc(O)cc(Cl)c3)n2)c1)Nc1ccc(Cl)c(C(F)(F)F)c1,2.59,11.9 µM
COC1/C=C/C(C)C(C(C)C(OC)C(C)CCC(=O)C(C)C(C/C=C/N(C)C=O)OC)OC(=O)/C=C/C=C(\C)CC(OC)CC2=CC(=O)O[C@H](C2)C(C)C(OC)CC(OC)/C=C/C(C)C(OC)C1 (some centres not stated),0.00105,–
CNCCCn1c2c(c3ccc([N+](=O)[O-])cc3c1=O)C(=O)c1cc(OC)cnc1-2,0.0435,1.53 µM
C#CC1(O)C(COP(=O)(O)OC(COCCCCCCCCCCCCCCCCCC)COP(=O)(O)OCC2OC(n3cc(F)c(=O)[nH]c3=O)CC2O)OC(n2ccc(N)nc2=O)C1O (configuration not stated),–,> 100 µM and 16.7 µM
COc1cc2oc3cc(=O)cc4oc(-c5ccccc5)cc(c2c2c1CCC(c1ccccc1)O2)c43 (configuration not stated),–,83.9 µM
c1cc2n(n1)CCN2,–,> 10000 µM
COc1cc(Nc2c(C#N)cnc3cc(OCCCN4CCN(C)CC4)c(OC)cc23)c(Cl)cc1Cl,0.0211,3.82 µM
O=CN/C=C/c1cccc(O)c1,–,> 100 µM
Nc1ccc2c(SCc3ccc([N+](=O)[O-])cc3)c3ccccc3nc2c1,–,27.9 µM
COC1=CC(c2ccc[nH]2)=N/C1=C\c1[nH]c(C)c(C(=O)CCCCC(=O)NC(C)(C)C)c1C,1.94,–
O=c1ccn(C2CC(O)C(CO)O2)c(=O)[nH]1 (configuration not stated),> 5000,> 5000 µM
O=C(N/C(=C/c1ccc(Cl)cc1Cl)c1nc2ccccc2s1)c1ccccc1,–,> 100 µM
CCOC(=O)c1cc2c(n1Cc1cccc(OC)c1)-c1oncc1CCC2,0.456,> 100 µM
COc1c(O)cc2oc(-c3ccc(O)cc3)cc(=O)c2c1O,–,> 100 µM
COc1cccc(-c2nn(-c3ccccc3)cc2-c2ccnc(NCCCNC(=O)Nc3ccc(Cl)c(Cl)c3)c2)c1,2.38,5.33 µM
c1csc(-c2cn3nc(-c4c[nH]c5ccccc45)sc3n2)c1,0.382,39.9 µM
COc1cc2ccccc2oc1=O,–,> 100 µM
N#CCCN(CCCN(CCCN(C(=O)Nc1ccccc1)c1ccccc1)C(=O)Nc1ccccc1)C(=O)Nc1ccccc1,–,> 8.75 µM
COc1ccc(-c2nc(-c3ccccc3)c(-c3ccccc3)[nH]2)cc1OC1CCCC1,79.5,> 100 µM
